Read-outs that look alike come from different tables or passages of the source. *1 amine or outer side, *2 acyl side, *3 side chain or, on linkers, in order; H or OH if unused. Where a SMILES comes first, the peptide text is derived from it. Bridges are numbered along the chain shown (N, C = ends). Where no end group is shown, it is not given here. Side-chain parts run from the residue outwards. [ ]: non-standard residue; d: D form. The star is where a group is joined. ξ: configuration not given here. C10 = S-[42-(cholest-5-en-3-yloxy)-2,42-dioxo-6,9,12,15,18,21,24,27,30,33,36,39-dodecaoxa-3-azadotetracont-1-yl]-L-cysteine, Cys(oxa12-cholesterol), CC(C)CCC[C@@H](C)[C@H]1CC[C@H]2[C@@H]3CC=C4C[C@@H](OC(=O)CCOCCOCCOCCOCCOCCOCCOCCOCCOCCOCCOCCOCCNC(=O)CSC[C@H](N[*:1])C(=O)[*:2])CC[C@]4(C)[C@H]3CC[C@]12C; X1 = CC(C)CCCC(C)[C@H]1CCC2C3CC=C4C[C@@H](OC(=O)CCOCCOCCOCCOCCOCCOCCOCCOCCOCCOCCOCCOCCNC(=O)C*)CC[C@]4(C)C3CC[C@@]21C; CH2CO2(3ξ-cholesteryl) = CC(C)CCC[C@@H](C)[C@H]1CC[C@H]2[C@@H]3CC=C4CC(OC(=O)C*)CC[C@]4(C)[C@H]3CC[C@]12C; γGlu = O=C(O)[C@H](CCC(=O)[*:2])N[*:1]; mPEG2 40kDa = C3 = Cys(mPEG)2 40 kDa; Palmitoyl = CCCCCCCCCCCCCCCC(=O)*; Met(O) = CS(=O)CC[C@H](N)C(=O)O; Nle = CCCC[C@H](N)C(=O)O; Ac4c = NC1(C(=O)O)CCC1; Aib = CC(C)(N)C(=O)O

The target in one data set is hGCGR (Homo sapiens, UniProt P47871). The data set can be described thus: fluorescence cell based cAMP assay, CHO cells stably expressing GCGR. As to conditions: for GCGR + 10% plasma (fold shift): EC50 with 10% plasma vs without. As to the method: We initially screened peptides in fluorescence cell based assays that measure production of cyclic-AMP (cAMP), using CHO cell lines stably expressing either recombinant human GLP-1R or human GCGR. Determination of Mouse and human GLP-1R and GCGR Agonist Activity was essentially as follows. CHO cells stably expressing mouse or human GLP-1R or GCGR were grown in Iscove's Modified Dulbecco's Medium (IMDM), 10% FBS, 1 mM L-glutamine, penicillin-streptomycin (100 μ/mL) and 750 μg G418/mL for three-four days before harvesting using Enzymefree Dissociation Media (EFDM, Specialty Media). […] The assay was terminated with the addition of the LANCE kit Detection buffer as per the manufacturer's instructions. The plates were held an additional hour at room temperature, then increasing cAMP levels were detected by a decrease in TR-FRET signal as measured in an EnVision counter (PerkinElmer) in comparison to a standard curve of cAMP as per the manufacturer's instructions. Data were analyzed using the linear and nonlinear regression analysis software, GraphPad Prism.
The in vitro potencies shown in Table 10 or Table 11 were determined from the results of assays that were similar to either the cell-based cAMP assays described herein above (Table 10) or the cell-based cAMP assays described in International Published Application No. WO2008101017, which is incorporated herein in its entirety, in particular the cell-based cAMP assays described therein (Table 11).
In general terms: cAMP levels reflect the balance of adenylyl cyclase and phosphodiesterase activity.

The nature of data set [1]: pI of the peptide analogs.

Sequence of hGCGR (P47871 26-477): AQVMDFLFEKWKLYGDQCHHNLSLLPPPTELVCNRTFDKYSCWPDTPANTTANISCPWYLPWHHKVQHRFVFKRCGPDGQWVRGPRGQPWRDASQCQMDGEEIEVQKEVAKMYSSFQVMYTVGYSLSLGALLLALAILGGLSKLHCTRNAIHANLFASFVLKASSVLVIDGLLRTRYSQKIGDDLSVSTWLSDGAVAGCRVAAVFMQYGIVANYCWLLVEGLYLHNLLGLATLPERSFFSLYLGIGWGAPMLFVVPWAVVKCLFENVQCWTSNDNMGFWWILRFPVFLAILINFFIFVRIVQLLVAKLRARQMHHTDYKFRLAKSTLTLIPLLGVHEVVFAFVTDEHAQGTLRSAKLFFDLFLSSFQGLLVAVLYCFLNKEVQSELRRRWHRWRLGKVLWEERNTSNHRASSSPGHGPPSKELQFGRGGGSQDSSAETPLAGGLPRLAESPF

Take “HαQGTFTSDYC3KYLDSRRAQDFVQWLmNTKRNRNNIA-CONH2 (H[Aib]QGTFTSDYC(mPEG2 40kDa)KYLDSRRAQDFVQWL[Met(O)]NTKRNRNNIA-NH2; not fully specified; printed as HαQGTFTSDYC3KYLDSRRAQDFVQWLmNTKRNRNNIA-CONH2) [OXM121]”: the “Receptor Selectivity” value in the data set with hGCGR (GLP-1R/GCGR, Table 6) was 0/0.

In the case of `CC[C@H](C)[C@H](NC(=O)[C@H](CC(N)=O)NC(=O)[C@H](CC(N)=O)NC(=O)[C@H](CCCNC(=N)N)NC(=O)[C@H](CC(N)=O)NC(=O)[C@H](CCCNC(=N)N)NC(=O)[C@H](CCCCN)NC(=O)[C@@H](NC(=O)[C@H](CC(N)=O)NC(=O)[C@H](CCOC)NC(=O)[C@H](CC(C)C)NC(=O)[C@H](Cc1c[nH]c2ccccc12)NC(=O)[C@H](CCC(N)=O)NC(=O)[C@@H](NC(=O)[C@H](Cc1ccccc1)NC(=O)[C@H](CC(=O)O)NC(=O)[C@H](CCC(N)=O)NC(=O)[C@H](C)NC(=O)[C@H](CCCNC(=N)N)NC(=O)[C@H](CCCNC(=N)N)NC(=O)[C@H](CO)NC(=O)[C@H](CC(=O)O)NC(=O)[C@H](CC(C)C)NC(=O)[C@H](Cc1ccc(O)cc1)NC(=O)[C@H](CCCCN)NC(=O)[C@H](CO)NC(=O)[C@H](Cc1ccc(O)cc1)NC(=O)[C@H](CC(=O)O)NC(=O)[C@H](CO)NC(=O)[C@@H](NC(=O)[C@H](Cc1ccccc1)NC(=O)[C@@H](NC(=O)CNC(=O)[C@H](CCC(N)=O)NC(=O)C(C)(C)NC(=O)[C@@H](N)Cc1c[nH]cn1)[C@@H](C)O)[C@@H](C)O)C(C)C)[C@@H](C)O)C(=O)N[C@@H](C)C(=O)N[C@@H](CSCC(=O)OC1CC[C@@]2(C)C(=CC[C@H]3[C@@H]4CC[C@H]([C@H](C)CCCC(C)C)[C@@]4(C)CC[C@@H]32)C1)C(N)=O` (stereo partly drawn) [OXM213], the “GCGR + 10% plasma (fold shift)” value at hGCGR is listed as “(44x) fold”.

Turning to “HsQGTFTSDYSSYLDSRRAQDFVQWLMNTK-γE-C4-COOH [OXM355]”, the pI result in data set [1] was “about 5”.

Consider `CSCC[C@H](NC(=O)[C@H](CC(C)C)NC(=O)[C@H](Cc1c[nH]c2ccccc12)NC(=O)[C@H](CCC(N)=O)NC(=O)[C@@H](NC(=O)[C@H](Cc1ccccc1)NC(=O)[C@H](CC(=O)O)NC(=O)[C@@H]1CCCCNC(=O)CC[C@H](NC(=O)[C@H](CC(=O)O)NC(=O)[C@H](CC(C)C)NC(=O)[C@H](Cc2ccc(O)cc2)NC(=O)[C@H](CCCCN)NC(=O)[C@H](CO)NC(=O)[C@H](Cc2ccc(O)cc2)NC(=O)[C@H](CC(=O)O)NC(=O)[C@H](CO)NC(=O)[C@@H](NC(=O)[C@H](Cc2ccccc2)NC(=O)[C@@H](NC(=O)CNC(=O)[C@H](CCC(N)=O)NC(=O)[C@@H](CO)NC(=O)[C@@H](N)Cc2c[nH]cn2)[C@@H](C)O)[C@@H](C)O)C(=O)N[C@@H](CCCNC(=N)N)C(=O)N[C@@H](CCCNC(=N)N)C(=O)N[C@@H](C)C(=O)N1)C(C)C)C(=O)N[C@@H](CC(N)=O)C(=O)N[C@H](C(=O)N[C@@H](CCCCN)C(=O)N[C@@H](CCC(=O)N[C@@H](CCC(=O)N[C@@H](CSCC(=O)NCCOCCOCCOCCOCCOCCOCCOCCOCCOCCOCCOCCOCCC(=O)O[C@H]1CC[C@@]2(C)C(=CCC3C2CC[C@@]2(C)C3CC[C@@H]2C(C)CCCC(C)C)C1)C(=O)O)C(=O)O)C(=O)O)[C@@H](C)O` (stereo partly drawn) [OXM392] (H-H[dS]QGTFTSDYSKYLDERRAKDFVQWLMNTK[γGlu][γGlu]C(X1)-OH; lactam 16-20), for which the pI entry is listed as “about 5.4” in data set [1] and 5.4 in data set [1] (Table 10).

Regarding “H-Acb-QGTFTSDYSKYLDERRAKDFVQWLMNTK-γE-γE-C10-COOH (lactam bridge between E and K) (H-H[Ac4c]QGTFTSDYSKYLDERRAKDFVQWLMNTK[γGlu][γGlu][C10]-OH; lactam 16-20) [OXM398]”, in data set [1], the pI result is given as “about 5.4”.

In the case of `CCCC[C@H](NC(=O)[C@H](CC(C)C)NC(=O)[C@H](Cc1c[nH]c2ccccc12)NC(=O)[C@H](CCC(N)=O)NC(=O)[C@@H](NC(=O)[C@H](Cc1ccccc1)NC(=O)[C@H](CC(=O)O)NC(=O)[C@H](CCC(N)=O)NC(=O)[C@H](C)NC(=O)[C@H](CCCNC(=N)N)NC(=O)[C@H](CCCNC(=N)N)NC(=O)[C@H](CO)NC(=O)[C@H](CC(=O)O)NC(=O)[C@H](CC(C)C)NC(=O)[C@H](Cc1ccc(O)cc1)NC(=O)[C@H](CCCCN)NC(=O)[C@H](CO)NC(=O)[C@H](Cc1ccc(O)cc1)NC(=O)[C@H](CC(=O)O)NC(=O)[C@H](CO)NC(=O)[C@@H](NC(=O)[C@H](Cc1ccccc1)NC(=O)[C@@H](NC(=O)CNC(=O)[C@H](CCC(N)=O)NC(=O)C(C)(C)NC(=O)[C@@H](N)Cc1c[nH]cn1)[C@@H](C)O)[C@@H](C)O)C(C)C)C(=O)N[C@@H](CC(N)=O)C(=O)N[C@H](C(=O)N[C@@H](CCCCN)C(=O)N[C@@H](CCCNC(=N)N)C(=O)N[C@@H](CC(N)=O)C(=O)N[C@@H](CCCNC(=N)N)C(=O)N[C@@H](CC(N)=O)C(=O)N[C@@H](CC(N)=O)C(=O)N[C@H](C(=O)N[C@@H](C)C(=O)N[C@@H](CSCC(=O)OC1CC[C@@]2(C)C(=CC[C@H]3[C@@H]4CC[C@H]([C@H](C)CCCC(C)C)[C@@]4(C)CC[C@@H]32)C1)C(N)=O)[C@@H](C)CC)[C@@H](C)O` (stereo partly drawn) [OXM212] (H-H[Aib]QGTFTSDYSKYLDSRRAQDFVQWL[Nle]NTKRNRNNIAC(CH2CO2(3ξ-cholesteryl))-NH2; N-terminus assumed), the “GCGR + 10% plasma (fold shift)” value at hGCGR is “(92x) fold”.

As to `CCCCCCCCCCCCCCCC(=O)N[C@@H](CCC(=O)NCCCC[C@H](NC(=O)[C@H](CC(=O)O)NC(=O)[C@H](CO)NC(=O)[C@@H](NC(=O)[C@H](Cc1ccccc1)NC(=O)[C@@H](NC(=O)CNC(=O)[C@H](CCC(N)=O)NC(=O)[C@@H](CO)NC(=O)[C@@H](N)Cc1c[nH]cn1)[C@@H](C)O)[C@@H](C)O)C(=O)N[C@@H](CO)C(=O)N[C@@H](CCCCN)C(=O)N[C@@H](Cc1ccc(O)cc1)C(=O)N[C@@H](CC(C)C)C(=O)N[C@@H](CC(=O)O)C(=O)N[C@@H](CCC(=O)O)C(=O)N[C@@H](CCCNC(=N)N)C(=O)N[C@@H](CCCNC(=N)N)C(=O)N[C@@H](C)C(=O)N[C@@H](CCC(N)=O)C(=O)N[C@@H](CC(=O)O)C(=O)N[C@@H](Cc1ccccc1)C(=O)N[C@H](C(=O)N[C@@H](CCC(N)=O)C(=O)N[C@@H](Cc1c[nH]c2ccccc12)C(=O)N[C@@H](CC(C)C)C(=O)N[C@@H](CCSC)C(=O)N[C@@H](CC(N)=O)C(=O)N[C@H](C(=O)N[C@@H](CCCCN)C(=O)N[C@@H](CCC(N)=O)C(=O)O)[C@@H](C)O)C(C)C)C(=O)O` [OXM414] (H-H[dS]QGTFTSDK([γGlu-Palmitoyl])SKYLDERRAQDFVQWLMNTKQ-OH; N-terminus and C-terminus assumed), the pI in data set [1] (Table 10) amounted to 5.4.

With `CCCCCCCCCCCCCCCC(=O)N[C@@H](CCC(=O)N[C@@H](CCC(=O)NCCCC[C@H](NC(=O)[C@H](CC(=O)O)NC(=O)[C@H](CO)NC(=O)[C@@H](NC(=O)[C@H](Cc1ccccc1)NC(=O)[C@@H](NC(=O)CNC(=O)[C@H](CCC(N)=O)NC(=O)C(C)(C)NC(=O)[C@@H](N)Cc1c[nH]cn1)[C@@H](C)O)[C@@H](C)O)C(=O)N[C@@H](CO)C(=O)N[C@@H](CCCCN)C(=O)N[C@@H](Cc1ccc(O)cc1)C(=O)N[C@@H](CC(C)C)C(=O)N[C@@H](CC(=O)O)C(=O)N[C@@H](CCC(=O)O)C(=O)N[C@@H](CCCNC(=N)N)C(=O)N[C@@H](CCCNC(=N)N)C(=O)N[C@@H](C)C(=O)N[C@@H](CCC(N)=O)C(=O)N[C@@H](CC(=O)O)C(=O)N[C@@H](Cc1ccccc1)C(=O)N[C@H](C(=O)N[C@@H](CCC(N)=O)C(=O)N[C@@H](Cc1c[nH]c2ccccc12)C(=O)N[C@@H](CC(C)C)C(=O)N[C@@H](CCSC)C(=O)N[C@@H](CC(N)=O)C(=O)N[C@H](C(=O)N[C@@H](CCCCN)C(N)=O)[C@@H](C)O)C(C)C)C(=O)O)C(=O)O` [OXM416] (H-H[Aib]QGTFTSDK([γGlu-γGlu-Palmitoyl])SKYLDERRAQDFVQWLMNTK-NH2), in data set [1] (Table 10), the pI is given as 5.5.

Values taken from patent US9593155B2, “Oxyntomodulin analogs” (priority 2009, dated 2017).
